Results on two molecules are retold here after patent US20060111305A1, “Metabolites of certain [1,4]diazepino[6,7,1-ij]quinoline derivatives and methods of preparation and use thereof” (Wyeth, priority 2004, published 2006).

Series [1] is described as follows: Rat brain radioactivity content and metabolite profiles after single oral 5 mg/kg [14C]DCDQ. The format is in vivo, Sprague-Dawley rats. The procedure: At sacrifice, blood samples were collected by cardiac puncture into tubes containing EDTA as the anticoagulant and placing them on ice. Aliquots of 50 μL were removed for combustion and determination of radioactivity content. Plasma was immediately obtained from the remaining blood by centrifugation at 4° C. Brains were excised after perfusion with 50 mL of chilled sterile saline. Urine samples were collected on dry ice at intervals of 0-8 and 8-24 hour post-dosing. Feces were collected at intervals of 0-8 and 8-24 hr post-dosing at room temperature and were homogenized as described previously. The biological specimens and aliquots of the dosing solution at pre- and post-dose were stored at approximately −70° C. until analyzed.
Brain and fecal samples were weighed and homogenized in water at volume-to-weight ratios of about 1:1 and 5:1, respectively. Blood aliquots (50 μL), brain homogenates (0.1 gram) and fecal homogenates (0.2 gram) were placed on Combusto-cones with Combusto-pads and combusted. A model 307 Tri-Carb Sample Oxidizer, equipped with an Oximate-80 Robotic Automatic Sampler (Perkin Elmer), was used for combustion. The liberated ^14CO2 was trapped with Carbo-Sorb E carbon dioxide absorber, mixed with PermaFluor® E+ liquid scintillation cocktail, and counted in a Tri-Carb Model 3100 TR/LL liquid scintillation counter (Perkin Elmer). The oxidation efficiency of the oxidizer was 98.2%.
Brain homogenates were analyzed for metabolite profiles. Aliquots of 1 gram of brain homogenates were mixed with an equal volume of methanol, placed on ice for about 10 minutes and centrifuged. The supernatant was transferred to a clean tube. The residue was extracted three times with 1 mL methanol. The supernatants of each sample were combined, evaporated to about 0.5 mL, and centrifuged. Extraction efficiency was determined by analyzing aliquots of 10 μL of the supernatant for radioactivity. An aliquot (100-200 μL) of the supernatant was analyzed by HPLC with radioactivity flow detection for profiling. Samples were also analyzed by LC/MS to characterize the radioactive peaks.
A Waters model 2690 HPLC system (Waters Corp., Milford, Mass.) with a built-in autosampler was used for analysis. Separations were accomplished on a Phenomenex Luna C18(2) column (150×2.0 mm, 5 μm) (Phenomenex, Torrance, Calif.). The sample chamber of the autosampler was maintained at 4° C., while the column was at ambient temperature of about 20° C. A variable wavelength UV detector set to monitor 250 nm and a Flo-One β Model A525 radioactivity detector described above were used for data acquisition. The HPLC mobile phase consisted of 10 mM ammonium acetate, pH 4.5 (A) and methanol (B), and was delivered at 0.2 mL/min. Chromatographic condition A was used for dose analysis, while condition B was used for analysis of urine and plasma, brain and fecal extracts.

The next series deals with T1, 5-HT2C (Homo sapiens, UniProt P28335).
T1 sequence (P28335 33-458): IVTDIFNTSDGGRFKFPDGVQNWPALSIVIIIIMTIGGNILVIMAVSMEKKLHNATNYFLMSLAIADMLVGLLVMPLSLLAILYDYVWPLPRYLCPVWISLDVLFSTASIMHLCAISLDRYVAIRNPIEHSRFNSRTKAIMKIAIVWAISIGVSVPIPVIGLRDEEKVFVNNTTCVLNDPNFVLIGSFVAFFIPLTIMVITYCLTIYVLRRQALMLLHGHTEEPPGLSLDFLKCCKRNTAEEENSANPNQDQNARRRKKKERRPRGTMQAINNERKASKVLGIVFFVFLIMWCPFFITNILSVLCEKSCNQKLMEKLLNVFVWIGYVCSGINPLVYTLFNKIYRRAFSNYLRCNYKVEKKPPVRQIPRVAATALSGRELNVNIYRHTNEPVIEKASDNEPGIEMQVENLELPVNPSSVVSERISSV
The settings on record: see WO03/091250 and US2004/0009970; cited from earlier work.

A short description of series [2]: Incubation of [14C]DCDQ in dog fecal homogenate (stability). The format is in vitro ADME. The following applies: 37° C. for 24 hours. On the procedure:
An average of 70.2% of the fecal radioactivity was extracted, while an average of 88.2% of the radioactivity was extracted from incubations of [^14C]DCDQ in blank fecal homogenate. In fecal extracts, DCDQ was major radioactive component, representing 54.4% to 96.7% of the total radioactivity. The metabolites detected in feces included hydroxy DCDQ (M2, M3 and M19), a keto DCDQ ([…]) and an uncharacterized peak (M20). The most abundant metabolite […] represented up to 16.4% of the total radioactivity in fecal extracts. The glucuronide of hydroxy DCDQ (M9) and the carbamoyl glucuronide of DCDQ (M6) were not detected in feces.

Like-named read-outs stand apart in the source and are kept apart here.

On to `c1cc2c3c(c1)[C@H]1CCC[C@H]1CN3CCNC2` [DCDQ, (9aR,12aS)-4,5,6,7,9,9a,10,11,12,12a-decahydro-cyclopenta[c][1,4]diazepine[6,7,1-ij]quinoline, reference compound], for which the Kp at 2 h in series [1] (Sprague-Dawley, rat, brain and plasma, oral, 5 mg/kg, male rats, 2 hr, read-out: Brain/Plasma Ratio, DCDQ) is 56.4 ± 11.5; in series [1] (Sprague-Dawley, rat, brain/plasma, oral, 5 mg/kg, female rats, 2 hr, read-out: Brain/Plasma Ratio, DCDQ) it was 49.9 ± 14.3. Also, the Kp at 4 h in series [1] (Sprague-Dawley, rat, brain and plasma, oral, 5 mg/kg, male rats, 4 hr, read-out: Brain/Plasma Ratio, DCDQ) is 50.5 ± 8.88. Also, the concentration at 2 h was 6080 ± 2170 ng/g in series [1] (Sprague-Dawley, rat, brain, oral, 5 mg/kg, female rats, 2 hr, mean ± S.D., N = 3, read-out: Brain concentration, DCDQ (estimated)) and 4630 ± 1180 ng/g in series [1] (Sprague-Dawley, rat, brain, oral, 5 mg/kg, male rats, 2 hr, mean ± S.D., N = 3, read-out: Brain concentration, DCDQ (estimated)). The concentration at 8 h in series [1] (Sprague-Dawley, rat, brain, oral, 5 mg/kg, female rats, 8 hr, mean ± S.D., N = 3, read-out: Brain concentration, DCDQ (estimated)) is 2680 ± 660 ng/g; in series [1] (Sprague-Dawley, rat, brain, oral, 5 mg/kg, male rats, 8 hr, mean ± S.D., N = 3, read-out: Brain concentration, DCDQ (estimated)), 2930 ± 930 ng/g. In series [1] (Sprague-Dawley, rat, brain, oral, 5 mg/kg, male rats, 4 hr, mean ± S.D., N = 3, read-out: Brain concentration, DCDQ (estimated)), the concentration at 4 h was 4470 ± 420 ng/g. Moreover, the Kp at 8 h came to 56.1 ± 17.8 in series [1] (Sprague-Dawley, rat, brain/plasma, oral, 5 mg/kg, female rats, 8 hr, read-out: Brain/Plasma Ratio, DCDQ) and 50.5 ± 11.4 in series [1] (Sprague-Dawley, rat, brain/plasma, oral, 5 mg/kg, male rats, 8 hr, read-out: Brain/Plasma Ratio, DCDQ). The Kp in series [1] (both sexes, Sprague-Dawley, rat, brain, oral, 5 mg/kg, independent of time or sex, 2 to 8 hour post-dose, read-out: average brain-to-plasma DCDQ ratio) is 49.9 to 56.1. The “% DCDQ of Brain Radioactivity” value worked out at 95.2 ± 1.0% in series [1] (female rats, 2 hr); 94.1 ± 0.7% in series [1] (female rats, 8 hr); 90.4 ± 0.9% in series [1] (male rats, 2 hr); 90.4 ± 0.5% in series [1] (male rats, 4 hr); 90.0 ± 1.2% in series [1] (male rats, 8 hr). Also, the 5-HT2C agonist activity result at 5-HT2C was “potent 5-HT2C agonist”.

On to `c1cc2c3c(c1)[C@H]1CCC[C@H]1CN3CCNC2` [[^14C]DCDQ], for which the “Brain concentration of radioactivity, Total” value came to 6.38 ± 2.22 μg equivalents/g in series [1] (female rats, 2 hr, mean ± S.D., N = 3); 2.85 ± 0.68 μg equivalents/g in series [1] (female rats, 8 hr, mean ± S.D., N = 3); 5.12 ± 1.28 μg equivalents/g in series [1] (male rats, 2 hr, mean ± S.D., N = 3); 4.94 ± 0.44 μg equivalents/g in series [1] (male rats, 4 hr, mean ± S.D., N = 3); 3.25 ± 0.99 μg equivalents/g in series [1] (male rats, 8 hr, mean ± S.D., N = 3); 0.04 ± 0.00 μg equivalents/g in series [1] (male rats, 24 hr, mean ± S.D., N = 3). Also, the Brain radioactivity concentration in series [1] (male rats, 24 hour post-dose) was determined as 0.037 ± 0.002 µg equivalents/g tissue. Moreover, the “degradation in fecal homogenate” value in series [2] was “no obvious degradation”.
